Consider 4 molecules from patent US6727232B2, “Nucleoside peptide antibiotics of AA-896” (Wyeth Holdings Corporation, priority 2001, dated 2004).

Converted amounts (≈) assume the structure as drawn. Like-named read-outs stand apart in the source and are kept apart here. Bounds are passed on as bounds.

Assay in all cases: Broth dilution MIC
Common to all, as to type: cell-based
For orientation: Dilution methods test growth across graded concentrations, often in twofold steps.

One test deals with E. cloacae GC 3783. As to conditions: Enterobacter cloacae, GC3783; E. cloacae GC 3783; Mueller-Hinton broth, 18 hours at 35° C.; read-out: Antimicrobial Activity (MIC). The method, boiled down: (§1)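 Broth dilution in Mueller-Hinton medium with 18 h incubation at 35° C.; the minimal concentration that stops growth of each strain is the MIC.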
The next test has as its system S. marcescens GC 4077. As to conditions: Serratia marcescens, GC4077; S. marcescens GC 4077; Mueller-Hinton broth, 18 hours at 35° C.; read-out: Antimicrobial Activity (MIC). In outline:
as §1

In the next test the test system is E. coli GC 4559. As to conditions: Escherichia coli, GC4559; E. coli GC 4559; Mueller-Hinton broth, 18 hours at 35° C.; read-out: Antimicrobial Activity (MIC). The method, boiled down:
as §1

Another test relates to E. faecalis GC 4555. As to conditions: Enterococcus faecalis, GC4555; E. faecalis GC 4555; Mueller-Hinton broth, 18 hours at 35° C.; read-out: Antimicrobial Activity (MIC). In outline: as §1
For a further test, the system named is CNS GC 4538. As to conditions: CNS GC 4538; Mueller-Hinton broth, 18 hours at 35° C.; read-out: Antimicrobial Activity (MIC). In outline:
as §1

A further test has as its system E. faecalis GC 2242. As to conditions: Enterococcus faecalis, GC2242; E. faecalis GC 2242; Mueller-Hinton broth, 18 hours at 35° C.; read-out: Antimicrobial Activity (MIC). The method, boiled down: as §1
The test system of a further test is P. aeruginosa GC 2214. As to conditions: Pseudomonas aeruginosa, GC2214; P. aeruginosa GC 2214; Mueller-Hinton broth, 18 hours at 35° C.; read-out: Antimicrobial Activity (MIC). The method, boiled down:
as §1

In another test the test system is E. coli GC 3226. As to conditions: Escherichia coli, GC3226; E. coli GC 3226; Mueller-Hinton broth, 18 hours at 35° C.; read-out: Antimicrobial Activity (MIC). In outline: as §1
Another test relates to CNS GC 4547. As to conditions: CNS GC 4547; Mueller-Hinton broth, 18 hours at 35° C.; read-out: Antimicrobial Activity (MIC). The method, boiled down:
as §1

The next test has as its system E. coli GC 2203. As to conditions: Escherichia coli, GC2203; E. coli GC 2203; Mueller-Hinton broth, 18 hours at 35° C.; read-out: Antimicrobial Activity (MIC). The method, boiled down:
as §1

Another test concerns E. faecalis GC 842. As to conditions: Enterococcus faecalis, GC842; E. faecalis GC 842; Mueller-Hinton broth, 18 hours at 35° C.; read-out: Antimicrobial Activity (MIC). The method, boiled down: as §1
Another test relates to P. rettgeri GC 4530. As to conditions: Providencia rettgeri, GC4530; P. rettgeri GC 4530; Mueller-Hinton broth, 18 hours at 35° C.; read-out: Antimicrobial Activity (MIC). In outline: as §1
The test system of another test is CNS GC 4537. As to conditions: CNS GC 4537; Mueller-Hinton broth, 18 hours at 35° C.; read-out: Antimicrobial Activity (MIC). The method, boiled down: as §1
The subject of another test is S. aureus GC 4536. As to conditions: Staphylococcus aureus, GC4536; S. aureus GC 4536; Mueller-Hinton broth, 18 hours at 35° C.; read-out: Antimicrobial Activity (MIC). The method, boiled down: as §1
A further test concerns P. aeruginosa GC 4532. As to conditions: Pseudomonas aeruginosa, GC4532; P. aeruginosa GC 4532; Mueller-Hinton broth, 18 hours at 35° C.; read-out: Antimicrobial Activity (MIC). The method, boiled down: as §1
The next test has as its system S. aureus GC 1131. As to conditions: Staphylococcus aureus, GC1131; S. aureus GC 1131; Mueller-Hinton broth, 18 hours at 35° C.; read-out: Antimicrobial Activity (MIC). In outline: as §1
For another test, the system named is K. pneumoniae GC 4534. As to conditions: Klebsiella pneumoniae, GC4534; K. pneumoniae GC 4534; Mueller-Hinton broth, 18 hours at 35° C.; read-out: Antimicrobial Activity (MIC). The method, boiled down: as §1
The next test deals with M. morganii GC 4531. As to conditions: Morganella morganii, GC4531; M. morganii GC 4531; Mueller-Hinton broth, 18 hours at 35° C.; read-out: Antimicrobial Activity (MIC). In outline:
as §1

For a further test, the system named is E. coli GC 4560. As to conditions: Escherichia coli, read-out: Antimicrobial Activity (MIC). The method, boiled down:
as §1

A further test concerns S. aureus GC 2216. As to conditions: Staphylococcus aureus, GC2216; S. aureus GC 2216; Mueller-Hinton broth, 18 hours at 35° C.; read-out: Antimicrobial Activity (MIC). In outline: as §1
The mark [1] stands for this setting: GC4560, E. coli GC 4560, Mueller-Hinton broth, 18 hours at 35° C.

The MIC is the smallest concentration in the dilution series that meets the test's criterion for growth inhibition.

With `CCCCCCNC(=O)NC[C@H]1OC(O[C@H](C2C(=O)N(CCCCCC)C(=O)N2CCCNC(=O)C(NC(=O)C(NC(=O)NC(C(=O)O)C(C)C)C2CCNC(=N)N2)C(O)C(C)C)[C@H]2O[C@@H](n3ccc(=O)[nH]c3=O)[C@H](O)[C@@H]2O)[C@H](OC)[C@H]1O` (stereo partly drawn) [Example 14, 14-[5-((R)-{(2S,3S,4R,5R)-5-[2,4-Dioxo-3,4-dihydro-1 (2H)-pyrimidinyl]-3,4-dihydroxytetrahydro-2-furanyl}{[(3R,4S,5R)-5-({[(hexylamino)carbonyl]amino}methyl)-4-hydroxy-3-methoxytetrahydro-2-furanyl]oxy}methyl)-3-hexyl-2,4-dioxo-1-imidazolidinyl]-9-(1-hydroxy-2-methylpropyl)-6-(2-iminohexahydro-4-pyrimidinyl)-2-isopropyl-4,7,10-trioxo-3,5,8,11-tetraazatetradecan-1-oic Acid], the MIC was more than 32 µg/mL in the test on E. cloacae GC 3783; more than 32 µg/mL with S. marcescens GC 4077; more than 32 µg/mL in the test on E. coli GC 4559; more than 32 µg/mL in the test with E. faecalis GC 4555; 32 µg/mL (≈ 27.1 µM) in the test with CNS GC 4538; 32 µg/mL (≈ 27.1 µM) in the test on E. faecalis GC 2242. Besides, the MIC in the test on P. aeruginosa GC 2214 is more than 32 µg/mL; with E. coli GC 3226 it was more than 32 µg/mL; with CNS GC 4547 it was 16 µg/mL (≈ 13.5 µM); with E. coli GC 2203, more than 32 µg/mL; in the test with E. faecalis GC 842, more than 32 µg/mL; with P. rettgeri GC 4530, more than 32 µg/mL. The MIC with CNS GC 4537 is 32 µg/mL (≈ 27.1 µM); in the test with S. aureus GC 4536, 32 µg/mL (≈ 27.1 µM); in the test on P. aeruginosa GC 4532, more than 32 µg/mL; in the test with S. aureus GC 1131, 32 µg/mL (≈ 27.1 µM); with K. pneumoniae GC 4534, more than 32 µg/mL; in the test with M. morganii GC 4531, more than 32 µg/mL. For the same molecule, the MIC in the test with E. coli GC 4560 (setting [1]) and in the test with S. aureus GC 2216 was 32 µg/mL (≈ 27.1 µM) in each case.

As to `CCCCCCCCCCCCNC(=O)NC[C@H]1OC(O[C@H](C2C(=O)N(CCCCCCCCCCCC)C(=O)N2CCCNC(=O)C(NC(=O)C(NC(=O)NC(C(=O)O)C(C)C)C2CCNC(=N)N2)C(O)C(C)C)[C@H]2O[C@@H](n3ccc(=O)[nH]c3=O)[C@H](O)[C@@H]2O)[C@H](OC)[C@H]1O` (stereo partly drawn) [Example 15, 14-[5-((R)-{(2S,3S,4R,5R)-5-[2,4-Dioxo-3,4-dihydro-1 (2H)-pyrimidinyl]-3,4-dihydroxytetrahydro-2-furanyl}{[(3R,4S,5R)-5-({[(dodecylamino)carbonyl]amino}methyl)-4-hydroxy-3-methoxytetrahydro-2-furanyl]oxy}methyl)-3-dodecyl-2,4-dioxo-1-imidazolidinyl]-9-(1-hydroxy-2-methylpropyl)-6-(2-iminohexahydro-4-pyrimidinyl)-2-isopropyl-4,7,10-trioxo-3,5,8,11-tetraazatetradecan-1-oic Acid], the minimal inhibitory concentration (MIC) with E. cloacae GC 3783, with S. marcescens GC 4077, in the test on E. coli GC 4559, in the test on E. faecalis GC 4555, in the test with CNS GC 4538 and in the test on E. faecalis GC 2242 was more than 32 µg/mL each time. Also, the MIC with P. aeruginosa GC 2214, in the test with E. coli GC 3226, with CNS GC 4547, with E. coli GC 2203, in the test with E. faecalis GC 842 and in the test with P. rettgeri GC 4530 was more than 32 µg/mL in each case. Moreover, the MIC in the test with CNS GC 4537, with S. aureus GC 4536, with P. aeruginosa GC 4532, in the test with S. aureus GC 1131, in the test with K. pneumoniae GC 4534 and with M. morganii GC 4531 was more than 32 µg/mL each time. Further, the minimum inhibitory concentration (MIC) with E. coli GC 4560 (setting [1]) and in the test on S. aureus GC 2216 was more than 32 µg/mL in each case.

For the molecule `CCCCCCCCCCCCCCCCNC(=O)NC[C@H]1OC(O[C@H](C(NCCCNC(=O)C(NC(=O)C(NC(=O)NC(C(=O)O)C(C)C)C2CCNC(=N)N2)C(O)C(C)C)C(=O)O)[C@H]2O[C@@H](n3ccc(=O)[nH]c3=O)[C@H](O)[C@@H]2O)[C@H](OC)[C@H]1O` (stereo partly drawn) [Example 16, 16-((R)-{(2S,3S,4R,5R)-5-[2,4-Dioxo-3,4-dihydro-1 (2H)-pyrimidinyl]-3,4-dihydroxytetrahydro-2-furanyl}{[(3R,4S,5R)-5-({[(hexadecylamino)carbonyl]amino}methyl)-4-hydroxy-3-methoxytetrahydro-2-furanyl]oxy}methyl)-9-(1-hydroxy-2-methylpropyl)-6-(2-iminohexahydro-4-pyrimidinyl)-2-isopropyl-4,7,10-trioxo-3,5,8,11,15-pentaazaheptadecane-1,17-dioic Acid], the MIC in the test on E. cloacae GC 3783, in the test with S. marcescens GC 4077, with E. coli GC 4559, in the test on E. faecalis GC 4555, in the test with CNS GC 4538 and in the test on E. faecalis GC 2242 was more than 32 µg/mL throughout. For the same molecule, the MIC in the test with P. aeruginosa GC 2214, with E. coli GC 3226, in the test with CNS GC 4547, in the test with E. coli GC 2203, in the test on E. faecalis GC 842 and in the test with P. rettgeri GC 4530 was more than 32 µg/mL in each case. Also, the MIC with CNS GC 4537, with S. aureus GC 4536, in the test on P. aeruginosa GC 4532, in the test on S. aureus GC 1131, in the test with K. pneumoniae GC 4534 and in the test with M. morganii GC 4531 was more than 32 µg/mL throughout. The MIC with E. coli GC 4560 (GC4560, 18 h) is more than 32 µg/mL; in the test with S. aureus GC 2216, more than 32 µg/mL.

On to `CCCCCNC[C@H]1OC(O[C@H](C(C(=O)O)N(CCCCC)CCCNC(=O)C(NC(=O)C(NC(=O)NC(C(=O)O)C(C)C)C2CCNC(=N)N2)C(O)C(C)C)[C@H]2O[C@@H](n3ccc(=O)[nH]c3=O)[C@H](O)[C@@H]2O)[C@H](OC)[C@H]1O` (stereo partly drawn) [Example 17, 16-[(R)-{(2S,3S,4R,5R)-5-[2,4-Dioxo-3,4-dihydro-1 (2H)-pyrimidinyl]-3,4-dihydroxytetrahydro-2-furanyl}({(3R,4S,5R)-4-hydroxy-3-methoxy-5-[(pentylamino)methyl]tetrahydro-2-furanyl}oxy)methyl]-9-(1-hydroxy-2-methylpropyl)-6-(2-iminohexahydro-4-pyrimidinyl)-2-isopropyl-4,7,10-trioxo-15-pentyl-3,5,8,11,15-pentaazaheptadecane-1,17-dioic Acid], for which the MIC in the test with E. cloacae GC 3783 was more than 32 µg/mL; in the test with S. marcescens GC 4077, more than 32 µg/mL; in the test on E. coli GC 4559, more than 32 µg/mL; in the test on E. faecalis GC 4555, more than 32 µg/mL; in the test with CNS GC 4538, more than 32 µg/mL; in the test on E. faecalis GC 2242 it was 32 µg/mL (≈ 29.5 µM). In addition, the minimal inhibitory concentration (MIC) with P. aeruginosa GC 2214 is more than 32 µg/mL; in the test on E. coli GC 3226, more than 32 µg/mL; in the test on CNS GC 4547, 32 µg/mL (≈ 29.5 µM); in the test with E. coli GC 2203, more than 32 µg/mL; with E. faecalis GC 842 it was more than 32 µg/mL; in the test on P. rettgeri GC 4530 it was more than 32 µg/mL. The minimal inhibitory concentration (MIC) in the test on CNS GC 4537, in the test with S. aureus GC 4536, in the test with P. aeruginosa GC 4532, with S. aureus GC 1131, in the test on K. pneumoniae GC 4534 and with M. morganii GC 4531 was more than 32 µg/mL throughout. The MIC in the test on E. coli GC 4560 (GC4560, 18 h) was 32 µg/mL (≈ 29.5 µM); with S. aureus GC 2216, more than 32 µg/mL.
